Legend:
[1] = target: H^+,K^+-ATPase (Homo sapiens, UniProt P20648); details: cited from earlier work
[2] = tested on: endogenous acid secretion; test: Inhibition of endogenous acid secretion in pylorus-ligated rats; format: in vivo, rat; details: ratio of doses for 50% reduction
From the text: This may increase pantoprazole's selectivity for the acid secreting parietal cells, where low pH conditions exist in the intracellular canaliculi. In intact animals, pantoprazole is active in inhibiting gastric acid secretion in both rats and dogs. Specifically, the intravenous and oral doses required to reduce endogenous acid secretion in pylorus-ligated rats by 50% are in the 1-3 μmole/kg range. […] Racemic pantoprazole is also effective at doses less than 5 μmole/kg in inhibiting exogenously stimulated acid secretion induced by a variety of agonists, indicating general activity of the drug in inhibiting acid secretion.

[3] = tested on: mice; test: Acute toxicity (LD50) in mice; format: in vivo
[4] = tested on: duodenal ulcers; details: patients with duodenal ulcers, after four weeks of 20 to 80 mg per day; cited from earlier work
[5] = tested on: exogenously stimulated acid secretion; details: secretion induced by a variety of agonists; cited from earlier work
[6] = tested on: serum gastrin; details: humans, short-term administration; cited from earlier work
[7] = tested on: rats; details: two year; cited from earlier work
[8] = tested on: mice; details: cited from earlier work
[9] = tested on: hepatic drug metabolizing enzyme systems; details: intact rats and rat microsomal enzyme preparations; compared to omeprazole; cited from earlier work
[10] = neutral and moderately acidic conditions; compared with omeprazole; cited from earlier work
[11] = tested on: rat; details: cited from earlier work
[12] = tested on: endogenous acid secretion; details: pylorus-ligated rats, cited from earlier work
[13] = tested on: beta-adrenergic; details: cited from earlier work

H^+,K^+-ATPase, sequence (P20648 whole entry): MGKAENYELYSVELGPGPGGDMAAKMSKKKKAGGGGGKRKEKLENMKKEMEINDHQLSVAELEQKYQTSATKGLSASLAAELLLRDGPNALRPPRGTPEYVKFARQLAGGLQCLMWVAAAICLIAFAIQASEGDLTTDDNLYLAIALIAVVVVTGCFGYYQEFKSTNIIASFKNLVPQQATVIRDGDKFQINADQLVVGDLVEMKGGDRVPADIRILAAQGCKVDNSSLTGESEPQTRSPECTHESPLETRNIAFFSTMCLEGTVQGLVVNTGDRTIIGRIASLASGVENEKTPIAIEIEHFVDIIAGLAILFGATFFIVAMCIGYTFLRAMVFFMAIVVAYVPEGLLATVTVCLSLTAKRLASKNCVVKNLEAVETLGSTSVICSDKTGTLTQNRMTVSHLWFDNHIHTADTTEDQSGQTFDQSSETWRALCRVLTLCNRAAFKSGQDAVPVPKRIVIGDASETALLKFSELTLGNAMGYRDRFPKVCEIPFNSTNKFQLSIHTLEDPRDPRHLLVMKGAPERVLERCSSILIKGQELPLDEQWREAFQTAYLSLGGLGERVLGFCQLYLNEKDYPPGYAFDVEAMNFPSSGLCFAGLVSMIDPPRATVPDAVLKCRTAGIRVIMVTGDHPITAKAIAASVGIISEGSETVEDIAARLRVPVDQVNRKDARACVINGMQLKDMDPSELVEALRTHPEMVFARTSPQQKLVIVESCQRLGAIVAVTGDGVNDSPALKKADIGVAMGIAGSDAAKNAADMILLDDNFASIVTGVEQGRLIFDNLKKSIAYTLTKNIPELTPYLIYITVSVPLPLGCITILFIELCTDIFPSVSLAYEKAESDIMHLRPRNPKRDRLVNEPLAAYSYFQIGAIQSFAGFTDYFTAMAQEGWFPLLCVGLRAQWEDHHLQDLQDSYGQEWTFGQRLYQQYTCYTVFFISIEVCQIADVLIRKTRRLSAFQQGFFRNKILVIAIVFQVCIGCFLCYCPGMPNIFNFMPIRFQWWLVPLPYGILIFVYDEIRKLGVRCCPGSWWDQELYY
H^+,K^+-ATPase, sequence (P51164 whole entry partner): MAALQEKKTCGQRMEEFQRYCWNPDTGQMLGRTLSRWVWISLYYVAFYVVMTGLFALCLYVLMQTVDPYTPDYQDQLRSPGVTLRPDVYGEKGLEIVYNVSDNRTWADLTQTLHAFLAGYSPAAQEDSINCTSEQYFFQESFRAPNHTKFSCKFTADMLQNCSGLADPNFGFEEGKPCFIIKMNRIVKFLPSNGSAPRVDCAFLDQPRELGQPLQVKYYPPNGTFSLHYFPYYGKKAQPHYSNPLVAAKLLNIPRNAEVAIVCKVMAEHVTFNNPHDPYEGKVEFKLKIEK

Compound: COc1ccnc(C[S+]([O-])c2nc3cc(OC(F)F)ccc3[n-]2)c1OC.[Na+] (racemic) [Racemic pantoprazole sodium]
- inhibition of H+,K+-ATPase [1]: potent, irreversible inhibitor

Compound: COc1ccnc(C[S+]([O-])c2nc3ccc(OC(F)F)cc3[nH]2)c1OC (racemic) [racemic pantoprazole]
- calculated oral/intravenous (p.o./i.v.) ratio [2]: approximately 2
- p.o./i.v. LD50 ratio [3]: approximately 2
- ulcer healing [4]: 90-100%
- effective dose inhibiting exogenously stimulated acid secretion [5]: less than 5 μmole/kg
- fasting serum gastrin levels [6]: significantly elevated
- finding in carcinogenicity study [7]: hepatocellular neoplasia
- intravenous LD50 [8]: 975 µmol/kg
- inhibition of hepatic drug metabolizing enzyme systems [9]: weaker inhibitor
- chemical stability [10]: more chemically stable
- oral LD50 ([11]; in vivo, po): > 2,467 μmol/kg
- intravenous LD50 ([11]; intravenous): 632 µmol/kg
- intravenous dose required to reduce endogenous acid secretion by 50% ([12]; intravenous): 1 to 3 µmol/kg
- oral dose required to reduce endogenous acid secretion by 50% ([12]; oral): 1 to 3 µmol/kg

Compound: CC(C)NC[C@H](O)COc1cccc2ccccc12 [L-form of propranolol, propranolol]
- potency relative to D-enantiomer [13]: 100 times
